From PubChem BioAssay (NCI)
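Grown in 96-well plates, cells were treated for 48 hours with each compound at five concentrations. Insufficient inhibition: endpoint recorded as highest concentration tested. TGI marks complete inhibition of growth.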

How the values were obtained:
Assay in all cases: inhibition of tumour cell growth, NCI panel, 48 h
[1] = test system: HL-60(TB) leukemia
[2] = test system: HCT-116 colon
[3] = test system: IGROV1 ovarian
[4] = test system: LOX IMVI melanoma
[5] = test system: HOP-92 NSCLC
[6] = test system: KM12 colon
[7] = test system: U251 CNS
[8] = test system: SK-MEL-28 melanoma
[9] = test system: MCF7 breast
[10] = test system: OVCAR-8 ovarian
[11] = test system: CAKI-1 renal
[12] = test system: NCI-H460 lung
[13] = test system: MOLT-4 leukemia
[14] = test system: NCI-H522 lung
[15] = test system: NCI-H23 lung
[16] = test system: NCI/ADR-RES ovarian
[17] = test system: EKVX NSCLC
[18] = test system: SW-620 colon
[19] = test system: SNB-19 CNS
[20] = test system: K-562 leukemia
[21] = test system: RPMI-8226 leukemia
[22] = test system: MDA-MB-231 breast
[23] = test system: SN12C renal
[24] = test system: SK-OV-3 ovarian
[25] = test system: NCI-H226 lung
[26] = test system: OVCAR-5 ovarian
[27] = test system: BT-549 breast
[28] = test system: T-47D breast
[29] = test system: HCC-2998 colon
[30] = test system: SK-MEL-2 melanoma
[31] = test system: CCRF-CEM leukemia
[32] = test system: SF-295 CNS
[33] = test system: PC-3 prostate
[34] = test system: ACHN renal
[35] = test system: SF-539 CNS
[36] = test system: HS 578T breast
[37] = test system: UACC-257 melanoma
[38] = test system: OVCAR-4 ovarian
[39] = test system: SF-268 CNS
[40] = test system: MDA-MB-435
[41] = test system: MDA-N
[42] = test system: UO-31 renal
[43] = test system: HT29 colon
[44] = test system: DU-145 prostate
[45] = test system: UACC-62 melanoma
[46] = test system: OVCAR-3 ovarian
[47] = test system: 786-0 renal
[48] = test system: COLO 205 colon
[49] = test system: HCT-15 colon
[50] = test system: SR leukemia
[51] = test system: SK-MEL-5 melanoma
[52] = test system: TK-10 renal
[53] = test system: M14 melanoma
[54] = test system: A549 NSCLC
[55] = test system: RXF 393 renal
[56] = test system: MALME-3M melanoma
[57] = test system: HOP-62 NSCLC
[58] = test system: SNB-75 CNS

Cc1ccc(C(=O)N/N=C(\N=Nc2ccccc2Cl)c2ccc(N(C)C)cc2)cc1
TGI [1]: > 100 µM | TGI [2]: > 100 µM | TGI [3]: > 100 µM | TGI [4]: > 100 µM | TGI [5]: > 100 µM | TGI [6]: > 100 µM | TGI [7]: > 100 µM | TGI [8]: > 100 µM | TGI [9]: > 100 µM | TGI [10]: > 100 µM | TGI [11]: 75.4 µM | TGI [12]: > 100 µM | TGI [13]: > 100 µM | TGI [14]: > 100 µM | TGI [15]: > 100 µM | TGI [16]: > 100 µM | TGI [17]: > 100 µM | TGI [18]: > 100 µM | TGI [19]: 84.5 µM | TGI [20]: > 100 µM | TGI [21]: > 100 µM | TGI [22]: > 100 µM | TGI [23]: > 100 µM | TGI [24]: > 100 µM | TGI [25]: > 100 µM | TGI [26]: > 100 µM | TGI [27]: 97.1 µM | TGI [28]: 24.5 µM | TGI [29]: > 100 µM | TGI [30]: > 100 µM | TGI [31]: > 100 µM | TGI [32]: > 100 µM | TGI [33]: > 100 µM | TGI [34]: 46.1 µM | TGI [35]: > 100 µM | TGI [36]: > 100 µM | TGI [37]: > 100 µM | TGI [38]: 78.4 µM | TGI [39]: > 100 µM | TGI [40]: 29.6 µM | TGI [41]: 34.5 µM | TGI [42]: > 100 µM | TGI [43]: > 100 µM | TGI [44]: 70.6 µM | TGI [45]: 17.8 µM | TGI [46]: > 100 µM | TGI [47]: > 100 µM | TGI [48]: > 100 µM | TGI [49]: > 100 µM | TGI [50]: 68.7 µM | TGI [51]: > 100 µM | TGI [52]: > 100 µM | TGI [53]: > 100 µM | TGI [54]: > 100 µM

S=C1CC(c2ccccc2)Sc2cc(Cl)ccc2N1 (stereo unspecified)
TGI [2]: 17.2 µM | TGI [3]: 84.5 µM | TGI [4]: > 100 µM | TGI [6]: > 100 µM | TGI [7]: 17.7 µM | TGI [8]: 51.8 µM | TGI [9]: 34.8 µM | TGI [10]: 31.3 µM | TGI [11]: 29 µM | TGI [12]: 22.8 µM | TGI [13]: 28.2 µM | TGI [14]: 16.9 µM | TGI [15]: 22.2 µM | TGI [16]: 30.5 µM | TGI [17]: > 100 µM | TGI [19]: 38.7 µM | TGI [20]: 11.2 µM | TGI [21]: > 100 µM | TGI [22]: 20.7 µM | TGI [23]: > 100 µM | TGI [24]: 19.9 µM | TGI [55]: 18.1 µM | TGI [25]: 32.7 µM | TGI [26]: > 100 µM | TGI [27]: > 100 µM | TGI [28]: > 100 µM | TGI [31]: 9.33 µM | TGI [32]: 12.6 µM | TGI [33]: > 100 µM | TGI [34]: 27 µM | TGI [56]: 93.6 µM | TGI [36]: 84 µM | TGI [37]: > 100 µM | TGI [38]: 28 µM | TGI [57]: 18.4 µM | TGI [39]: 24.7 µM | TGI [40]: 30 µM | TGI [41]: 39.6 µM | TGI [42]: > 100 µM | TGI [43]: > 100 µM | TGI [44]: > 100 µM | TGI [45]: 44.9 µM | TGI [46]: 8.49 µM | TGI [47]: 17.7 µM | TGI [48]: > 100 µM | TGI [49]: > 100 µM | TGI [50]: 83.7 µM | TGI [51]: 29.4 µM | TGI [52]: 38.9 µM | TGI [58]: 20.8 µM | TGI [53]: > 100 µM | TGI [54]: 38.4 µM

CCOC(=O)c1sc2nc1CSc1sc(=S)sc1SCc1nc(sc1C(=O)OCC)-c1nc(c(C(=O)OCC)s1)CSc1sc(=S)sc1SCc1nc-2sc1C(=O)OCC
TGI [1]: > 10 µM | TGI [2]: > 10 µM | TGI [3]: > 10 µM | TGI [4]: > 10 µM | TGI [5]: > 10 µM | TGI [6]: > 10 µM | TGI [7]: > 10 µM | TGI [8]: > 10 µM | TGI [9]: > 10 µM | TGI [10]: > 10 µM | TGI [11]: > 10 µM | TGI [12]: > 10 µM | TGI [13]: > 10 µM | TGI [14]: > 10 µM | TGI [15]: > 10 µM | TGI [16]: > 10 µM | TGI [17]: > 10 µM | TGI [18]: > 10 µM | TGI [19]: > 10 µM | TGI [20]: > 10 µM | TGI [21]: > 10 µM | TGI [22]: > 10 µM | TGI [23]: > 10 µM | TGI [24]: > 10 µM | TGI [55]: > 10 µM | TGI [26]: > 10 µM | TGI [27]: > 10 µM | TGI [28]: > 10 µM | TGI [29]: > 10 µM | TGI [30]: > 10 µM | TGI [31]: > 10 µM | TGI [32]: > 10 µM | TGI [33]: > 10 µM | TGI [34]: > 10 µM | TGI [56]: > 10 µM | TGI [35]: > 10 µM | TGI [36]: > 10 µM | TGI [37]: > 10 µM | TGI [38]: > 10 µM | TGI [57]: > 10 µM | TGI [39]: > 10 µM | TGI [40]: > 10 µM | TGI [41]: > 10 µM | TGI [42]: > 10 µM | TGI [43]: > 10 µM | TGI [45]: > 10 µM | TGI [46]: > 10 µM | TGI [47]: > 10 µM | TGI [48]: > 10 µM | TGI [49]: > 10 µM | TGI [50]: > 10 µM | TGI [51]: > 10 µM | TGI [52]: > 10 µM | TGI [58]: > 10 µM | TGI [54]: > 10 µM
